For assay [1], the system named is C. albicans. Kind of assay: Germ load test of aroma and extract combinations, pure water pH 7. The format is cell-based, Candida albicans. The note with it: 400 ppm in sample. An excerpt: (§1) In the scope of a further test, the antimicrobial effect of aroma and extract combinations was examined. […] For example, grape stone extract and the flavouring agent vanillic acid have a different effect against yeasts. In the combination, however, also an effect against fungi and an optimal effect against yeasts was observed. The pomegranate and red berry extract have a lower effect at pH 7 compared to pH 3 (cf. Example 5), the pomegranate extract eliminates S. cerevisiae in less than 14 days at 1000 mg/kg. In combination with Limonene-containing lemon oils, however, the effect can be increased for higher pH values.

The test system of assay [2] is Z. bailii. Described as above. The format is cell-based, Zygosaccharomyces bailii. The note with it: 400 ppm in sample.
From the text: as §1

The test system of assay [3] is S. cerevisiae. The assay is described as above. In kind it is cell-based, Saccharomyces cerevisiae. The note with it: 400 ppm in sample.
From the text: as §1

For assay [4], the system named is S. cerevisiae. Briefly: Antimicrobial effect of extracts and fractions, citrate buffer pH 5. The format is cell-based, Saccharomyces cerevisiae. An excerpt: For further examination of the antimicrobial effect of different extracts alone, i.e. without a combination with component (B) or fractions thereof according to the invention, exemplary extracts or fractions thereof such as described in Examples 1 to 4 were used. […] The samples were inoculated with 3.8×10^4 CFU/mL […].

For the compound `COc1cc(C(=O)O)ccc1O` [Vanillic acid], the “Elimination of C. albicans in less than (time)” value in assay [1] is < 24 h. Also, in assay [2], the “Elimination of Z. bailii in less than (time)” value was < 24 h. Also, the “Elimination of S. cerevisiae in less than (time)” value in assay [3] is recorded as < 14 days.
Take `C/C=C/C=C/C(=O)[O-].[K+]` [potassium sorbate]: in assay [4] (375 mg/kg, pH 5, 28 days), the “Reduction in the germination number of S. cerevisiae (in words)” value is reported as “did not show a significant reduction”. In assay [4] (dose 375 mg/kg, citrate buffer pH 5, after inoculation 3.80E+04), the “Germination number S. cerevisiae after 28 days” value was 1.00E+03 CFU/mL.

For the origin of these results see patent publication US11925194B2, “Antimicrobially active mixtures” (SYMRISE AG, priority 2017, dated 2024).
